Reference: patent US10543212B2, “Substituted amines for treating cardiac diseases” (Cardurion Pharmaceuticals, LLC, priority 2017, dated 2020)

molecular target: T1, Full-length, GST-tagged, human CaMKIIδ (Homo sapiens, UniProt Q13557); assay: CaMKIIδ binding assay (TR-FRET with BODIPY-labeled probe ligand); settings: CaMKIIδ binding assay, results of Table 2
T1 construct: Full-Length, Glutathione-S-Transferase(GST)-Tagged, Human CaMKIIδ was purchased from Carna Biosciences; purchased Carna Biosciences 02-111
Summary of the method: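 TR-FRET probe-displacement binding: 0.5 nM GST-CaMKIIδ with 10 μg/mL calmodulin, 1 mM CaCl2, 0.21 nM Tb-anti-GST Ab and 300 nM BODIPY probe in HEPES pH 7.6 buffer. Eight-point 4-fold dilutions, 1 hr at room temperature. IC50 from logistic fit; 100% inhibition defined by 3 μM parent compound.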

T1 sequence (Q13557 1-478 isoform Q13557-12): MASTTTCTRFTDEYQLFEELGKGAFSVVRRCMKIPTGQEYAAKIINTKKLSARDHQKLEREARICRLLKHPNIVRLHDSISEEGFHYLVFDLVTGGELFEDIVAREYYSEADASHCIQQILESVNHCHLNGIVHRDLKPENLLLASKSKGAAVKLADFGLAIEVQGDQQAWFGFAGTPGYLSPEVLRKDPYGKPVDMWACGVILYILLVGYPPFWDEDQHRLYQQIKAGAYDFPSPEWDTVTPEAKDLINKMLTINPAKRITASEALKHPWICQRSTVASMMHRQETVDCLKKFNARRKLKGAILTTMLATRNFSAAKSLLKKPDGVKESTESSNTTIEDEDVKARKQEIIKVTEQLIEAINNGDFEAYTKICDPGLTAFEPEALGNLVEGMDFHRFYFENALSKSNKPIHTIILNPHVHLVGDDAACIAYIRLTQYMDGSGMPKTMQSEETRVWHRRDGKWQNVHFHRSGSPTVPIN

Row | SMILES | IC50 [nM]
1 | COC1CCCCC1N1CCC(n2cc(Nc3ncc(-c4ccc(Cl)c(O[C@@H](C)Cn5cnnn5)c4)cn3)c(C(F)(F)F)n2)CC1 (stereo partly drawn) [Example 554, 5-(3-(((S)-1-(1H-tetrazol-1-yl)propan-2-yl)oxy)-4-chlorophenyl)-N-(1-(1-(2-methoxycyclohexyl)piperidin-4-yl)-3-(trifluoromethyl)-1H-pyrazol-4-yl)pyrimidin-2-amine] | < 10
2 | COc1cc(C2CCCN(C3COC3)C2)ccc1Nc1ncc(-c2ccc(C#N)c(O[C@@H](C)Cn3cnnn3)c2)cn1 (stereo partly drawn) [Example 493, 2-(((S)-1-(1H-tetrazol-1-yl)propan-2-yl)oxy)-4-(2-((2-methoxy-4-(1-(oxetan-3-yl)piperidin-3-yl)phenyl)amino)pyrimidin-5-yl)benzonitrile] | < 10
3 | COc1cc2c(cc1Nc1ncc(-c3ccc(Cl)c(O[C@@H](C)Cn4cnnn4)c3)cn1)NCC2 [Example 477, (S)-N-(5-(3-((1-(1H-tetrazol-1-yl)propan-2-yl)oxy)-4-chlorophenyl)pyrimidin-2-yl)-5-methoxyindolin-6-amine] | 10 to 100
4 | Cc1ncc(N2CCC(N3CCOCC3)CC2)cc1Nc1ncc(-c2ccc(Cl)c(O[C@@H](C)Cn3cnnn3)c2)cn1 [Example 462, (S)-5-(3-((1-(1H-tetrazol-1-yl)propan-2-yl)oxy)-4-chlorophenyl)-N-(2-methyl-5-(4-morpholinopiperidin-1-yl)pyridin-3-yl)pyrimidin-2-amine] | < 10

same assay, conditions: CaMKIIδ binding assay; activity class per Table 2

Row | SMILES | IC50 [nM]
5 | C[C@@H](Cn1cnnn1)Oc1cc(-c2cnc(Nc3cn(C4CC5(C4)CN(C4(C)CCOCC4)C5)nc3OCC(F)(F)F)nc2)ccc1Cl [Example 937, (S)-5-(3-((1-(1H-tetrazol-1-yl)propan-2-yl)oxy)-4-chlorophenyl)-N-(1-(2-(4-methyltetrahydro-2H-pyran-4-yl)-2-azaspiro[3.3]heptan-6-yl)-3-(2,2,2-trifluoroethoxy)-1H-pyrazol-4-yl)pyrimidin-2-amine] | < 10
6 | CC(C)c1nn(C2CC3(CNC3)C2)cc1Nc1ncc(-c2ccc(Cl)c(O[C@@H](C)Cn3cnnn3)c2)cn1 [Example 934, (S)-5-(3-((1-(1H-tetrazol-1-yl)propan-2-yl)oxy)-4-chlorophenyl)-N-(3-isopropyl-1-(2-azaspiro[3.3]heptan-6-yl)-1H-pyrazol-4-yl)pyrimidin-2-amine] | < 10
7 | CO[C@H]1CC[C@@H](N2CC3(CC(n4cc(Nc5ncc(-c6ccc(Cl)c(O[C@@H](C)Cn7cnnn7)c6)cn5)c(C(C)C)n4)C3)C2)CC1 [Example 1011, 5-(3-(((S)-1-(1H-tetrazol-1-yl)propan-2-yl)oxy)-4-chlorophenyl)-N-(3-isopropyl-1-(2-(cis-4-methoxycyclohexyl)-2-azaspiro[3.3]heptan-6-yl)-1H-pyrazol-4-yl)pyrimidin-2-amine] | < 10
8 | C[C@@H](Cn1cnnn1)Oc1cc(-c2cnc(Nc3cn(C4CC5(CNC5)C4)nc3C(F)(F)F)nc2)ccc1Cl [Example 920, (S)-5-(3-((1-(1H-tetrazol-1-yl)propan-2-yl)oxy)-4-chlorophenyl)-N-(1-(2-azaspiro[3.3]heptan-6-yl)-3-(trifluoromethyl)-1H-pyrazol-4-yl)pyrimidin-2-amine] | < 10

same assay, conditions: Table 2; CaMKIIδ binding assay, activity given as class A/B/C

Row | SMILES | IC50 [nM]
9 | C[C@@H](Cn1cnnn1)Oc1cc(-c2cnc(Nc3cn(CC(C)(C)O)nc3C(F)(F)F)nc2)ccc1Cl [Example 847, (S)-1-(4-((5-(3-((1-(1H-tetrazol-1-yl)propan-2-yl)oxy)-4-chlorophenyl)pyrimidin-2-yl)amino)-3-(trifluoromethyl)-1H-pyrazol-1-yl)-2-methylpropan-2-ol] | < 10
10 | C[C@@H](Cn1cnnn1)Oc1cc(-c2cnc(Nc3cn(Cc4nc5ccccc5c(=O)[nH]4)nc3C(F)(F)F)nc2)ccc1Cl [Example 741, (S)-2-((4-((5-(3-((1-(1H-tetrazol-1-yl)propan-2-yl)oxy)-4-chlorophenyl)pyrimidin-2-yl)amino)-3-(trifluoromethyl)-1H-pyrazol-1-yl)methyl)quinazolin-4(3H)-one] | 10 to 100
11 | C[C@@H](Cn1cnnn1)Oc1cc(-c2cnc(Nc3cn([C@H]4CC[C@@H](N5CC(C)(O)C5)CC4)nc3C(F)(F)F)nc2)ccc1Cl [Example 803, 1-(cis-4-(4-((5-(3-(((S)-1-(1H-tetrazol-1-yl)propan-2-yl)oxy)-4-chlorophenyl)pyrimidin-2-yl)amino)-3-(trifluoromethyl)-1H-pyrazol-1-yl)cyclohexyl)-3-methylazetidin-3-ol] | < 10
12 | C[C@@H](Cn1cnnn1)Oc1cc(-c2cnc(Nc3cn(C4CC5(C4)CN(CC(C)(C)O)C5)nc3C(F)(F)F)nc2)ccc1Cl [Example 859, (S)-1-(6-(4-((5-(3-((1-(1H-tetrazol-1-yl)propan-2-yl)oxy)-4-chlorophenyl)pyrimidin-2-yl)amino)-3-(trifluoromethyl)-1H-pyrazol-1-yl)-2-azaspiro[3.3]heptan-2-yl)-2-methylpropan-2-ol] | < 10
13 | C[C@@H](Cn1cnnn1)Oc1cc(-c2cnc(Nc3cn(C)nc3OCC(F)(F)F)nc2)ccc1Cl [Example 759, (S)-5-(3-((1-(1H-tetrazol-1-yl)propan-2-yl)oxy)-4-chlorophenyl)-N-(1-methyl-3-(2,2,2-trifluoroethoxy)-1H-pyrazol-4-yl)pyrimidin-2-amine] | < 10
14 | C[C@@H](Cn1cnnn1)Oc1cc(-c2cnc(Nc3cn([C@H]4CC[C@@H](N5CCOCC5)CC4)nc3C(F)(F)F)nc2)ccc1Cl [Example 781, 5-(3-(((S)-1-(1H-tetrazol-1-yl)propan-2-yl)oxy)-4-chlorophenyl)-N-(1-(cis-4-morpholinocyclohexyl)-3-(trifluoromethyl)-1H-pyrazol-4-yl)pyrimidin-2-amine] | < 10

same assay, conditions: Table 2; activity class for CaMKIIδ

Row | SMILES | IC50 [nM]
15 | COc1cc2c(cc1Nc1ncc(-c3ccc(Cl)c(O[C@@H](C)Cn4cnnn4)c3)cn1)N(C(=O)C(F)(F)F)CCC2 [Example 586, (S)-1-(7-((5-(3-((1-(1H-tetrazol-1-yl)propan-2-yl)oxy)-4-chlorophenyl)pyrimidin-2-yl)amino)-6-methoxy-3,4-dihydroquinolin-1(2H)-yl)-2,2,2-trifluoroethan-1-one] | ≥ 100
16 | C[C@@H](Cn1cnnn1)Oc1cc(-c2cnc(Nc3cn(CCN4CCCC4)nc3C(F)(F)F)nc2)ccc1Cl [Example 631, (S)-5-(3-((1-(1H-tetrazol-1-yl)propan-2-yl)oxy)-4-chlorophenyl)-N-(1-(2-(pyrrolidin-1-yl)ethyl)-3-(trifluoromethyl)-1H-pyrazol-4-yl)pyrimidin-2-amine] | < 10
17 | C[C@@H](Cn1cnnn1)Oc1cc(-c2cnc(Nc3cn(CC4CCCN4C4CCOCC4)nc3C(F)(F)F)nc2)ccc1Cl (stereo partly drawn) [Example 611, 5-(3-(((S)-1-(1H-tetrazol-1-yl)propan-2-yl)oxy)-4-chlorophenyl)-N-(1-((1-(tetrahydro-2H-pyran-4-yl)pyrrolidin-2-yl)methyl)-3-(trifluoromethyl)-1H-pyrazol-4-yl)pyrimidin-2-amine] | < 10
18 | COc1cc(N2CCOC(CN(C)C)C2)ccc1Nc1ncc(-c2ccc(Cl)c(O[C@@H](C)Cn3cnnn3)c2)cn1 (stereo partly drawn) [Example 688, 5-(3-(((S)-1-(1H-tetrazol-1-yl)propan-2-yl)oxy)-4-chlorophenyl)-N-(4-(2-((dimethylamino)methyl)morpholino)-2-methoxyphenyl)pyrimidin-2-amine] | < 10
19 | CNC(=O)C1CN(c2ccc(OC)c(Nc3ncc(-c4ccc(Cl)c(O[C@@H](C)Cn5cnnn5)c4)cn3)c2)C1 [Example 679, (S)-1-(3-((5-(3-((1-(1H-tetrazol-1-yl)propan-2-yl)oxy)-4-chlorophenyl)pyrimidin-2-yl)amino)-4-methoxyphenyl)-N-methylazetidine-3-carboxamide] | < 10
20 | C[C@@H](Cn1cnnn1)Oc1cc(-c2cnc(Nc3cn(Cc4nc5ccccc5[nH]4)nc3C(F)(F)F)nc2)ccc1Cl [Example 658, (S)-N-(1-((1H-benzo[d]imidazol-2-yl)methyl)-3-(trifluoromethyl)-1H-pyrazol-4-yl)-5-(3-((1-(1H-tetrazol-1-yl)propan-2-yl)oxy)-4-chlorophenyl)pyrimidin-2-amine] | 10 to 100
21 | C[C@@H](Cn1cnnn1)Oc1cc(-c2cnc(Nc3cn(C4CNC4)nc3C(F)(F)F)nc2)ccc1Cl [Example 697, (S)-5-(3-((1-(1H-tetrazol-1-yl)propan-2-yl)oxy)-4-chlorophenyl)-N-(1-(azetidin-3-yl)-3-(trifluoromethyl)-1H-pyrazol-4-yl)pyrimidin-2-amine] | < 10
22 | CCn1cc(Nc2ncc(-c3ccc(Cl)c(O[C@@H](C)Cn4cnnn4)c3)cn2)c(C2CC2)n1 [Example 642, (S)-5-(3-((1-(1H-tetrazol-1-yl)propan-2-yl)oxy)-4-chlorophenyl)-N-(3-cyclopropyl-1-ethyl-1H-pyrazol-4-yl)pyrimidin-2-amine] | 10 to 100
23 | C[C@@H](Cn1cnnn1)Oc1cc(-c2cnc(Nc3cn(CC(=O)N4CCOCC4)nc3C(F)(F)F)nc2)ccc1Cl [Example 607, (S)-2-(4-((5-(3-((1-(1H-tetrazol-1-yl)propan-2-yl)oxy)-4-chlorophenyl)pyrimidin-2-yl)amino)-3-(trifluoromethyl)-1H-pyrazol-1-yl)-1-morpholinoethan-1-one] | < 10
24 | C[C@@H](Cn1cnnn1)Oc1cc(-c2cnc(Nc3cn(C4CCN(C5CCOCC5)CC4)nc3OC(F)F)nc2)ccc1Cl [Example 664, (S)-5-(3-((1-(1H-tetrazol-1-yl)propan-2-yl)oxy)-4-chlorophenyl)-N-(3-(difluoromethoxy)-1-(1-(tetrahydro-2H-pyran-4-yl)piperidin-4-yl)-1H-pyrazol-4-yl)pyrimidin-2-amine] | < 10
